The record followed here is the Kinase Knowledgebase extract (Sharma et al. 2016).

The target in assay [1] is CDK2 (UniProt P24941). Put plainly: Enzyme Assay.
Assay [2] concerns the target CDK2 (human) (UniProt P24941). Put plainly: Cell-Based Assay.

On to `COc1ccccc1-c1[nH]nc2c1N=C(c1ccccc1Cl)c1cc([N+](=O)[O-])ccc1N2`, for which the IC50 in assay [1] was in the range of 10 to 30 µM.
On to `O=[N+]([O-])c1ccc2c(c1)C(c1ccccc1Cl)=Nc1c(n[nH]c1-[o+]1ccnn1)N2`, for which the IC50 in assay [1] and in assay [2] (mda-mb-435) was 10 to 30 µM each time.
As for `O=[N+]([O-])c1ccc2c(c1)C(c1ccccc1)=Nc1c(n[nH]c1-c1ccc3c(c1)OCCO3)N2`, the IC50 in assay [1] lay within 10 to 30 µM.
Same read-out and setting: then `O=[N+]([O-])c1ccc2c(c1)C(c1ccccc1Cl)=Nc1c(n[nH]c1-c1ccsc1)N2`, with 0.01 to 0.99 µM; and `Clc1ccc2c(c1)C(c1ccccc1Cl)=Nc1c[nH]nc1N2`, with 10 to 30 µM.
Take `Fc1ccccc1C1=Nc2c[nH]nc2Nc2ccccc21`: the figures for the IC50 in assay [1], in assay [2] (hct 116) and in assay [2] (sw480) were 1 to 9.99 µM, 10 to 30 µM and 10 to 30 µM, respectively.
In the case of `O=[N+]([O-])c1ccc2c(c1)C(c1ccccc1Cl)=Nc1c(n[nH]c1-c1cccs1)N2`, the IC50 in assay [1] fell in the range of 0.01 to 0.99 µM; in assay [2] (hct 116), 10 to 30 µM; in assay [2] (sw480) it was 10 to 30 µM.
On to `CCOC(=O)c1ccc2c(c1)C(c1ccccc1F)=Nc1c(n[nH]c1C)N2`, for which the IC50 in assay [2] (hct 116), in assay [2] (mda-mb-435) and in assay [2] (sw480) was 1.1 to 9.99 µM in each case.
As to `O=[N+]([O-])c1ccc2c(c1)C(c1ccccc1Cl)=Nc1c(n[nH]c1-c1cccc3c1OCO3)N2`, in assay [2] (hct 116), the IC50 was in the range of 10 to 30 µM.
As for `Cc1[nH]nc2c1N=C(c1ccccc1F)c1cc(C#N)ccc1N2`, the IC50 in assay [2] (hct 116) was in the range of 1.1 to 9.99 µM; in assay [2] (mda-mb-435), 0.01 to 1 µM; in assay [2] (sw480), 0.01 to 1 µM.
For the compound `Cc1[nH]nc2c1N=C(c1ccccc1F)c1cc(I)ccc1N2`, in assay [2] (sw480), the IC50 was 1.1 to 9.99 µM.
With `Fc1ccc2c(c1)C(c1ccccc1F)=Nc1c[nH]nc1N2`, the figures for the IC50 in assay [1] and in assay [2] (sw480) were 1 to 9.99 µM and 10 to 30 µM, respectively.
In assay [1], `O=[N+]([O-])c1ccc2c(c1)C(c1ccccc1Cl)=Nc1c(n[nH]c1-c1cccc(Oc3ccccc3)c1)N2` came in with an IC50 of 10 to 30 µM.
Take `CCOC(=O)c1[nH]nc2c1N=C(c1ccccc1Cl)c1cc([N+](=O)[O-])ccc1N2`: the IC50 was in the range of 1 to 9.99 µM in assay [1] and 10 to 30 µM in assay [2] (mda-mb-435).
Compound `O=[N+]([O-])c1ccc2c(c1)C(c1ccccc1Cl)=Nc1c(n[nH]c1C(F)(F)F)N2` yielded an IC50 in assay [2] (mda-mb-435) of 1.1 to 9.99 µM.
On the same count and under the same terms, next, `COCc1[nH]nc2c1N=C(c1ccccc1Cl)c1cc([N+](=O)[O-])ccc1N2`: 1.1 to 9.99 µM.
Compound `Cn1cccc1-c1[nH]nc2c1N=C(c1ccccc1Cl)c1cc([N+](=O)[O-])ccc1N2` gave an IC50 in assay [1] of 1 to 9.99 µM.
For `O=[N+]([O-])c1ccc2c(c1)C(c1ccccc1F)=Nc1c[nH]nc1N2`, the IC50 in assay [2] (hct 116) lay in the range of 10 to 30 µM; in assay [2] (mda-mb-435), 10 to 30 µM; in assay [2] (sw480), 1.1 to 9.99 µM.
On to `Cc1[nH]nc2c1N=C(c1ccccc1Cl)c1cc(N)ccc1N2`, for which the IC50 in assay [2] (mda-mb-435) and in assay [2] (sw480) was 0.01 to 1 µM each time.
Turning to `c1ccc(C2=Nc3c[nH]nc3Nc3ccccc32)cc1`, the IC50 in assay [1] is 1 to 9.99 µM; in assay [2] (hct 116), 10 to 30 µM; in assay [2] (sw480), 10 to 30 µM.
In the case of `CCOc1cccc(-c2[nH]nc3c2N=C(c2ccccc2Cl)c2cc([N+](=O)[O-])ccc2N3)c1`, the half-maximal inhibitory concentration (IC50) in assay [1] lay within 1 to 9.99 µM.
On the same count and under the same terms, next, `O=C(O)c1ccc2c(c1)C(c1ccccc1F)=Nc1c[nH]nc1N2`: 1 to 9.99 µM.
Regarding `Cc1[nH]nc2c1N=C(c1ccccc1F)c1cc([N+](=O)[O-])ccc1N2`, the IC50 in assay [2] (mda-mb-435) and in assay [2] (sw480) was 0.01 to 1 µM throughout.
With `CN(C)C(=O)c1[nH]nc2c1N=C(c1ccccc1Cl)c1cc([N+](=O)[O-])ccc1N2`, in assay [1], the IC50 lay in the range of 1 to 9.99 µM.
In assay [1], `O=[N+]([O-])c1ccc2c(c1)C(c1ccccc1)=Nc1c(n[nH]c1-c1ccccc1F)N2` displayed an IC50 of 10 to 30 µM.
Compound `CN(C)Cc1[nH]nc2c1N=C(c1ccccc1Cl)c1cc([N+](=O)[O-])ccc1N2` had an IC50 in assay [2] (mda-mb-435) of 10 to 30 µM.
Consider `Cc1[nH]nc2c1N=C(c1ccccc1F)c1cc(F)ccc1N2`, for which, in assay [2] (sw480), the IC50 was 0.01 to 1 µM.
`NC(=O)c1[nH]nc2c1N=C(c1ccccc1Cl)c1cc([N+](=O)[O-])ccc1N2` yielded an IC50 in assay [2] (mda-mb-435) of 10 to 30 µM.
With `N#Cc1cccc(-c2[nH]nc3c2N=C(c2ccccc2Cl)c2cc([N+](=O)[O-])ccc2N3)c1`, the IC50 in assay [1] was in the range of 1 to 9.99 µM.
`Cc1[nH]nc2c1N=C(c1ccccc1F)c1ccccc1N2`: the IC50 is 1.1 to 9.99 µM in assay [2] (mda-mb-435) and 0.01 to 1 µM in assay [2] (sw480).
`Cc1[nH]nc2c1N=C(c1ccccc1)c1cc(F)ccc1N2`: the IC50 in assay [2] (mda-mb-435) was 0.01 to 1 µM; in assay [2] (sw480), 1.1 to 9.99 µM.
With `O=[N+]([O-])c1ccc2c(c1)C(c1ccccc1Cl)=Nc1c[nH]nc1N2`, the IC50 fell in the range of 10 to 30 µM in assay [2] (hct 116), 10 to 30 µM in assay [2] (mda-mb-435) and 1.1 to 9.99 µM in assay [2] (sw480).
Regarding `C=Cc1[nH]nc2c1N=C(c1ccccc1Cl)c1cc([N+](=O)[O-])ccc1N2`, in assay [2] (mda-mb-435), the IC50 is 0.01 to 1 µM.
